Reference: patent US9126968B2, “Quinic acid derivative, process for preparation and uses thereof” (NATIONAL APPLIED RESEARCH LABORATORIES, priority 2013, dated 2015)
Values after ≈ are worked out from the molar mass of the structure shown. “Also recorded” adds a separate entry of the source.

Tests used:
[1] = tested on: IL-2 expressed from signal 2 pathway of T-cells; assay: in vitro IC50 measurement (reduction of IL-2); format: cell-based; settings: T-cell; dosage causing 50% reduction of IL-2; FIG. 8; read-out: IC50 on blocking T-cell immune response
Excerpt: The IC50 represents the dosage which causes 50% reduction of IL-2 expressed from signal 2 pathway of T-cells.

T-cells [2] = assay: in vitro cytotoxicity test (MTT assay); format: cell-based; settings: compared with cynarin, FIG. 5
Protocol: The amount of survival T-cells is measured by MTT assay. […] Conversely, they are less cytotoxic than cynarin.

OVA-sensitized mice [3] = settings: mouse, in vivo
[4] = single dose toxicity test; settings: mouse, in vivo, mice, read-out: maximum tolerance dose (MTD)
[5] = target: CD28 of T-cells and CD80 of B-cells (Homo sapiens, UniProt P10747); assay: unbinding force test; format: binding; settings: in the presence of Cyn-1324; about 41.9 pN in its absence; FIG. 7
Excerpt: In the absence of Cyn-1324, the average unbinding force is about 41.9 pN. Conversely, in the presence of Cyn-1324, the average unbinding force is reduced to about 29.1 pN. The results shown in FIG. 7 provide the physical evidence that Cyn-1324 repulses the binding between CD28 and CD80, thus blocking the signal 2 pathway induced by the interaction of CD28 and co-stimulatory molecules such as CD80 or CD86.

[6] = mouse, in vivo
Protocol: One of the four mice groups is treated with PBS, and three of the four groups are sensitized with OVA.

T-cells [7] = assay: in vitro efficacy test: production of IL-2 from T-cells; format: cell-based; settings: compared with cynarin; FIG. 6
Excerpt: The production of IL-2 is reduced when the activation of T-cells is interfered.

OVA-sensitized mice [8] = assay: in vivo animal test of immuno-suppressive effect (serum antibodies via ELISA); settings: OVA-sensitized BALB/c mice, serum on 14th day, FIG. 9
Protocol: The four BALB/c mice groups are treated with phosphate-buffered saline (PBS), ovalbulmin (OVA), OVA/Cyn-1324 or OVA/cyclosporin A (CSA), respectively. CSA is used currently in clinics for suppressing immune response. The 14th-day from the treatments, the serum is collected, and the antibodies such as IgG and IgE are analyzed via ELISA. […] Accordingly, Cyn-1324 is effective for suppressing immune response.

CD28 of T-cells and CD80 of B-cells, sequence (P10747 19-220): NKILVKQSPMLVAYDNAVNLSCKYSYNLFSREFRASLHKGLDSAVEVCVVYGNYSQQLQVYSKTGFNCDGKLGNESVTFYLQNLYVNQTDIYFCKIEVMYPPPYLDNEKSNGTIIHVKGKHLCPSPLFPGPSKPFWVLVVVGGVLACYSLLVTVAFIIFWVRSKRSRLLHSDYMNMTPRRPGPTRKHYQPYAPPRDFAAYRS

SMILES: CC(C)CNC(=O)[C@@]1(O)C[C@@H](O)[C@@H]2OC3(CCCCC3)O[C@@H]2C1 [Cyn-1324, (3aR,5R,7R,7aS)-5,7-dihydroxy-N-(2-methylpropyl)hexahydrospiro[1,3-benzodioxole-2,1′-cyclohexane]-5-carboxamide]
- IC50 [1]: ~20 µg/mL (≈ 61.1 µM)
- cell survival rates of T-cells (cytotoxicity) (T-cells [2]): higher than cynarin; also recorded: lowest cytotoxicity
- side effect: body swollen (OVA-sensitized mice [3]): does not cause the similar side effect
- MTD [4]: ~400 mg/kg
- average unbinding force [5]: about 29.1 pN
- body weight variation versus time [6]: steadily increased
- efficacy to suppress T-cell activation (production of IL-2) (T-cells [7]): higher (or equal) efficacy; also recorded: high efficacy
- IgE decrease (OVA-sensitized mice [8]): about 23%
- IgG decrease (OVA-sensitized mice [8]): about 30%
